Reference: PMC12250302, “Synthesis, Antimicrobial Activities, and Model of Action of Novel Tetralone Derivatives Containing Aminoguanidinium Moiety” (International Journal of Molecular Sciences, 2025)
≈ marks a conversion by molar mass, not a printed value.

What was measured:
[1] = tested on: lung cancer cell line (A549); assay: Cytotoxicity, CCK-8 method; format: cell-based
Procedure: (§1) The CCK-8 method was used to evaluate the toxicity of 2D to four cell lines (lung cancer cell line (A549), human liver cell line (HepG2), human embryonic kidney 293T cells (HEK 293-T), and human colon adenocarcinoma cell line (Caco-2)). Cells with a density of 1 × 10^5 cells/well were added to 96-well plates and then incubated for 24 h at 5% CO2 and 37 °C. Subsequently, after treatment with different concentrations of 2D for 24 h, the CCK-8 kit was added according to the prescribed procedure. Following an incubation at 37 °C for 0.5 h, the absorbances at 450 nm were detected. The […] was calculated according to the following formula:Cytotoxic (%) = (Atest/Acontrol) × 100%(2)

[2] = tested on: human embryonic kidney 293T cells (HEK 293-T); assay: Cytotoxicity, CCK-8 method; format: cell-based
Procedure: as §1

[3] = tested on: human liver cell line (HepG2); assay: Cytotoxicity, CCK-8 method; format: cell-based
Procedure: as §1

[4] = tested on: human colon adenocarcinoma cell line (Caco-2); assay: Cytotoxicity, CCK-8 method; format: cell-based
Procedure: as §1

MRSA-2 biofilm = assay: Biofilm formation inhibition assay (crystal violet); format: cell-based, Staphylococcus aureus; details: MRSA-2
Procedure: The effect of 2D on the biofilm formation of MRSA was evaluated. MRSA-2 was cultured in MH broth for a period of 3–5 h, after which it was diluted to a density of 1 × 10^6 CFU/mL with MH broth. […] After the removal of the suspended bacteria, the well plates were washed thrice with PBS. Then, 150 μL of methanol was added and fixed for 30 min. Subsequent to air-drying, 150 μL of a 0.1% crystal violet aqueous solution was added. Following a 15 min staining period, the excess crystal violet was removed by rinsing with flowing water. Finally, 150 μL of anhydrous ethanol was added and the mixture was incubated for 20 min. The optical density at 575 nm was detected.

S. aureus ATCC 29213 = assay: MIC and MBC testing, broth microdilution; format: cell-based, Staphylococcus aureus; details: Staphylococcus aureus, ATCC29213, S. aureus ATCC 29213
Summary of the method: (§2)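 Controls comprised levofloxacin (positive) and 0.1% DMSO (negative). Compounds, serially halved in MH broth, met log-phase cells pre-diluted to 1 × 10^6 CFU/mL; after an 18 h, 37 °C incubation, absence of visible growth defined the MIC, triplicate per concentration.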

[5] = tested on: K. pneumoniae ATCC 700603; assay: MIC and MBC testing, broth microdilution; format: cell-based, Klebsiella pneumoniae; details: Klebsiella pneumoniae
Summary of the method: as §2

A. baumannii ATCC 19606 = assay: MIC and MBC testing, broth microdilution; format: cell-based, Acinetobacter baumannii; details: Acinetobacter baumannii
Summary of the method: as §2

sheep red blood cells = assay: Hemolytic activity; format: cell-based
Procedure: The hemolysis of compound 2D was determined by its ability to lyse sheep red blood cells. The results were expressed as the HC50 value (the concentration at which 50% of red blood cells were lysed).
The sterile defibrillated sheep blood cells were centrifuged (5000 rpm, 5 min) and then washed three times with 0.9% saline. Subsequently, 1 μL of different concentrations of 2D (0.5–128 μg/mL) was mixed with 999 μL of red blood cell suspension. After incubation at 37 °C for 1 h, the mixed solution was centrifuged. The absorbance of the supernatant at 570 nm was measured. Triton X-100 (0.1%) was used as a positive control, and DMSO was used as a negative control. The hemolysis rate was calculated according to the following formula:Hemolysis rate (%) = (ODTreatment − ODNegative)/(ODPositive − ODNegative) × 100%(1)

S. aureus (ATCC 29213) = assay: Growth curve (OD600); format: cell-based, Staphylococcus aureus; details: 2D 0.5, 1, 2, 4, 8 µg/mL, vancomycin 0.5 and 1 μg/mL
Procedure: (§3) The growth inhibition and time-dependent killing abilities of 2D were evaluated against S. aureus (ATCC 29213) and MRSA-2. After culturing the strains in MH broth until the logarithmic growth phase, they were diluted with MH broth to 1 × 10^6 CFU/mL. […] OD600 values were measured at predetermined time intervals (0, 1, 2, 4, 6, 8, 10, 12, and 24 h).

MRSA-2 [6] = assay: Growth curve (OD600); format: cell-based, Staphylococcus aureus; details: 2D 0.5, 1, 2, 4, 8 µg/mL, vancomycin 0.5 and 1 μg/mL
Procedure: as §3

MRSA-2 [7] = assay: Fluorescence microscopy assay (DAPI/PI); format: cell-based, Staphylococcus aureus; details: vancomycin 4 µg/mL; 2D 4 and 8 μg/mL; 2 h
Procedure: MRSA-2 was cultivated to the logarithmic growth phase, then washed with PBS and resuspended in PBS until the concentration of bacterial suspension reached 1 × 10^8 CFU/mL. […] Thereafter, the samples were incubated with DAPI (10 μM) and PI (10 μM) in the dark for 15 min. The bacterial cells were then subjected to observation under a fluorescence microscope. DMSO served as the negative controls.

MIC (S. aureus ATCC 29213; 18 h, read-out: MIC): 0.5 mg/L (≈ 1.58 µM)
MIC ([5]; ATCC700603, 18 h, read-out: MIC): 16 mg/L (≈ 50.6 µM)
MIC (A. baumannii ATCC 19606; ATCC19606, 18 h, read-out: MIC): 4 mg/L (≈ 12.6 µM)
SMILES: [H]/N=C(\N)NN=C1CCCc2cc(OCCCCCCC)ccc21 [Compound 2D, (E)-2-(6-(heptyloxy)-3,4-dihydronaphthalen-1(2H)-ylidene)hydrazine-1-carboximidamide]
IC50 ([1]; Homo sapiens, A549, 24 h, CCK-8): 3.57 mg/L (≈ 11.3 µM)
Selectivity index (SI) ([1]; SI = IC50 (A549)/MIC ATCC 29213): 7.14
IC50 ([2]; Homo sapiens, HEK 293-T, 24 h, CCK-8): 13.1 mg/L (≈ 41.4 µM)
Selectivity index (SI) ([2]; SI = IC50 (HEK 293-T)/MIC ATCC 29213): 26.18
IC50 ([3]; Homo sapiens, HepG2, 24 h, CCK-8): 6 mg/L (≈ 19 µM)
Selectivity index (SI) ([3]; SI = IC50 (HepG2)/MIC ATCC 29213): 12.00
IC50 ([4]; Homo sapiens, CaCo-2, 24 h, CCK-8): 9.86 mg/L (≈ 31.2 µM)
Selectivity index (SI) ([4]; SI = IC50 (CaCo-2)/MIC ATCC 29213): 19.72
reduction of biofilm formation (MRSA-2 biofilm; 1 μg/mL (1MIC), 24 h): more than 92%
inhibition of biofilm formation (MRSA-2 biofilm; 2–32 μg/mL (2-32MIC)): almost completely inhibited the formation of biofilm
inhibition at 0.25 µg/mL (MRSA-2 biofilm; Staphylococcus aureus, 0.25 μg/mL (1/4MIC), 24 h, read-out: inhibition rate of biofilm formation): ~18.5%
inhibition at 0.5 µg/mL (MRSA-2 biofilm; Staphylococcus aureus, 0.5 μg/mL (1/2MIC), 24 h, read-out: inhibition rate of biofilm formation): ~37.8%
MBC (S. aureus ATCC 29213; read-out: MBC): 4 mg/L (≈ 12.6 µM)
MBC ([5]; ATCC700603, read-out: MBC): 32 mg/L (≈ 101 µM)
MBC (A. baumannii ATCC 19606; ATCC19606, read-out: MBC): 16 mg/L (≈ 50.6 µM)
Selectivity index (SI) (sheep red blood cells; SI = HC50/MIC ATCC 29213): 101.30
HC50 (sheep red blood cells; sheep red blood cells, 37 °C, 1 h): 50.65 µg/mL
growth inhibition (growth curve) (S. aureus (ATCC 29213)): able to suppress the growth
growth inhibition (growth curve) (MRSA-2 [6]): able to suppress the growth
PI red fluorescence (damaged membranes) (MRSA-2 [7]): a marked tendency to emit red fluorescence
